Laboratory results taken from patent US8178689B2, “Tricyclic compounds” (Hoffman-La Roche Inc., priority 2010, dated 2012).

Target: T1, Recombinant human liver GK1 (GST-GK) (Homo sapiens, UniProt P35557)
T1 construct: made in house; host or cells: E. coli
T1 sequence (P35557 1-466 isoform P35557-2): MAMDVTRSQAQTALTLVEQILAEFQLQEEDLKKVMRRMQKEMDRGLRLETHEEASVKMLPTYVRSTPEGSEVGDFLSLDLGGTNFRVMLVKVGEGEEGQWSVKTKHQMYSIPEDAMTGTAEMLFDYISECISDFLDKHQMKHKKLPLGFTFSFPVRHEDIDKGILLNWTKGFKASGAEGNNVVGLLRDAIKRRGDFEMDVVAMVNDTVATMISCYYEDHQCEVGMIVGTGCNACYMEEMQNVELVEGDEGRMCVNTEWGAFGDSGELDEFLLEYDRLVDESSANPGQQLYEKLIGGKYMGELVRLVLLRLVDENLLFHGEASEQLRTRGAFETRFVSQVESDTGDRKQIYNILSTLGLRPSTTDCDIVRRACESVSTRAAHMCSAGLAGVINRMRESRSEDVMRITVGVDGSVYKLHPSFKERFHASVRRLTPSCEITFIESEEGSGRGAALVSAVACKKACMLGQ
Test: In vitro glucokinase activity (G6PDH-coupled NADH generation assay)
Assay type: biochemical
Parameters: unit not given here
Settings: concentration of activator that produced a 50% increase in the activity of GK; 5 mM D-glucose, 30° C., pH 7.1, 10% DMSO
Experimental: Glucokinase In Vitro Assay Protocol: Glucokinase (GK) was assayed by coupling the production of glucose-6-phosphate to the generation of NADH with glucose-6-phosphate dehydrogenase (G6PDH, 0.75-1 kunits/mg; Boehringer Mannheim, Indianapolis, Ind.) from Leuconostoc mesenteroides as the coupling enzyme:
Recombinant human liver GK1 was expressed in E. coli as a glutathione S-transferase fusion protein (GST-GK) [Liang et al, 1995]and was purified by chromatography over a glutathione-Sepharose 4B affinity column using the procedure provided by the manufacturer (Amersham Pharmacia Biotech, Piscataway, N.J.).
The assay was conducted at 30° C. in a flat bottom 96-well tissue culture plate from Costar (Cambridge, Mass.) with a final incubation volume of 120 μL. The incubation reaction contained the following: 25 mM Hepes buffer (pH 7.1), 25 mM KCl, 5 mM D-glucose, 1 mM ATP, 1.8 mM NAD, 2 mM MgCl2, 1 μM sorbitol-6-phosphate, 1 mM dithiothreitol, test drug or 10% DMSO, ˜7 units/ml G6PDH, and GK (see below). All organic reagents were >98% pure and were from Boehringer Mannheim with the exceptions of D-glucose and Hepes which were from Sigma Chemical Co, St Louis, Mo. Test compounds were dissolved in DMSO and were added to the incubation reaction minus GST-GK in a volume of 12 μL to yield a final DMSO concentration of 10%. This mix was pre-incubated in the temperature controlled chamber of a SPECTRAmax 250 microplate spectrophotometer (Molecular Devices Corporation, Sunnyvale, Calif.) for 10 minutes to allow temperature equilibrium and then the reaction was started by the addition of 20 μL GST-GK.
After addition of enzyme, the increase in optical density (OD) at 340 nm was monitored spectrophotometrically to determine the rate of change (OD340 per min). The GK activity (OD340/min) in control wells (10% DMSO minus GK activators) was compared with the activity in wells containing test GK activators, and the concentration of activator that produced a 50% increase in the activity of GK, i.e., the SC1.5:0.1, was calculated. The table below provides the in vitro glucokinase activity for the compounds in the Examples: […]

SMILES	SC 1.5:0.1
CC(C)C[C@@H](C(=O)Nc1ccccn1)N1CC2=C(Oc3cccc(Cl)c3C2)C1=O [Example 3, (S)-2-(8-Chloro-3-oxo-3,9-dihydro-1H-chromeno[2,3-c]pyrrol-2-yl)-4-methyl-pentanoic acid pyridin-2-ylamide]	4.602
CC(C)C[C@@H](C(=O)Nc1ccc(Cl)cn1)N1CC2=C(Oc3cccc(Cl)c3C2)C1=O [Example 4, (S)-2-(8-Chloro-3-oxo-3,9-dihydro-1H-chromeno[2,3-c]pyrrol-2-yl)-4-methyl-pentanoic acid (5-chloro-pyridin-2-yl)-amide]	3.18
COc1cccc2c1CC1=C(O2)C(=O)N([C@@H](CC2CCCCC2)C(=O)Nc2ccccn2)C1 [Example 7, (S)-3-Cyclohexyl-2-(8-methoxy-3-oxo-3,9-dihydro-1H-chromeno[2,3-c]pyrrol-2-yl)-N-pyridin-2-yl-propionamide]	0.333
COc1cccc2c1CC1=C(O2)C(=O)N([C@@H](CC2CCCCC2)C(=O)Nc2ccc(Cl)cn2)C1 [Example 8, (S)—N-(5-Chloro-pyridin-2-yl)-3-cyclohexyl-2-(8-methoxy-3-oxo-3,9-dihydro-1H-chromeno[2,3-c]pyrrol-2-yl)-propionamide]	0.292
COc1cccc2c1CC1=C(O2)C(=O)N([C@@H](CC2CCCCC2)C(=O)Nc2nccs2)C1 [Example 9, (S)-3-Cyclohexyl-2-(8-methoxy-3-oxo-3,9-dihydro-1H-chromeno[2,3-c]pyrrol-2-yl)-N-thiazol-2-yl-propionamide]	0.746
COC(=O)c1ccc(NC(=O)[C@H](CC2CCCCC2)N2CC3=C(Oc4cccc(OC)c4C3)C2=O)nc1 [Example 10, 6-[(S)-3-Cyclohexyl-2-(8-methoxy-3-oxo-3,9-dihydro-1H-chromeno[2,3-c]pyrrol-2-yl)-propionylamino]-nicotinic acid methyl ester]	0.302
COC(=O)c1ccc(NC(=O)[C@H](CC(C)C)N2CC3=C(Oc4cccc(OC)c4C3)C2=O)nc1 [Example 12, 6-[(S)-2-(8-Methoxy-3-oxo-3,9-dihydro-1H-chromeno[2,3-c]pyrrol-2-yl)-4-methyl-pentanoylamino]-nicotinic acid methyl ester]	0.906
COc1ccc(OC)c2c1CC1=C(O2)C(=O)N([C@@H](CC2CCCCC2)C(=O)Nc2nccs2)C1 [Example 16, (S)-3-Cyclohexyl-2-(5,8-dimethoxy-3-oxo-3,9-dihydro-1H-chromeno[2,3-c]pyrrol-2-yl)-N-thiazol-2-yl-propionamide]	2.439
COC(=O)c1ccc(NC(=O)[C@H](CC2CCCCC2)N2CC3=C(Oc4c(OC)ccc(OC)c4C3)C2=O)nc1 [Example 17, 6-[(S)-3-Cyclohexyl-2-(5,8-dimethoxy-3-oxo-3,9-dihydro-1H-chromeno[2,3-c]pyrrol-2-yl)-propionylamino]-nicotinic acid methyl ester]	0.219
COc1ccc(OC)c2c1CC1=C(O2)C(=O)N([C@@H](CC(C)C)C(=O)Nc2ccccn2)C1 [Example 18, (S)-2-(5,8-Dimethoxy-3-oxo-3,9-dihydro-1H-chromeno[2,3-c]pyrrol-2-yl)-4-methyl-pentanoic acid pyridin-2-ylamide]	2.532
COC(=O)c1ccc(NC(=O)[C@H](CC(C)C)N2CC3=C(Oc4c(OC)ccc(OC)c4C3)C2=O)nc1 [Example 19, 6-[(S)-2-(5,8-Dimethoxy-3-oxo-3,9-dihydro-1H-chromeno[2,3-c]pyrrol-2-yl)-4-methyl-pentanoylamino]-nicotinic acid methyl ester]	0.803
CC(C)C[C@@H](C(=O)Nc1nccs1)N1CC2=C(Oc3c(Cl)cccc3C2)C1=O [Example 24, (S)-2-(5-Chloro-3-oxo-3,9-dihydro-1H-chromeno[2,3-c]pyrrol-2-yl)-4-methyl-pentanoic acid thiazol-2-ylamide]	18.957

The remaining lines, values ahead:

SC 1.5:0.1	SMILES
1.311	O=C(Nc1ccccn1)[C@H](CC1CCCCC1)N1CC2=C(Oc3cccc(Cl)c3C2)C1=O [Example 1, (S)-2-(8-Chloro-3-oxo-3,9-dihydro-1H-chromeno[2,3-c]pyrrol-2-yl)-3-cyclohexyl-N-pyridin-2-yl-propionamide]
4.051	O=C(Nc1nccs1)[C@H](CC1CCCCC1)N1CC2=C(Oc3cccc(Cl)c3C2)C1=O [Example 2, (S)-2-(8-Chloro-3-oxo-3,9-dihydro-1H-chromeno[2,3-c]pyrrol-2-yl)-3-cyclohexyl-N-thiazol-2-yl-propionamide]
9.277	CC(C)C[C@@H](C(=O)Nc1nccs1)N1CC2=C(Oc3cccc(Cl)c3C2)C1=O [Example 5, (S)-2-(8-Chloro-3-oxo-3,9-dihydro-1H-chromeno[2,3-c]pyrrol-2-yl)-4-methyl-pentanoic acid thiazol-2-ylamide]
3.324	COC(=O)c1ccc(NC(=O)[C@H](CC(C)C)N2CC3=C(Oc4cccc(Cl)c4C3)C2=O)nc1 [Example 6, 6-[(S)-2-(8-Chloro-3-oxo-3,9-dihydro-1H-chromeno[2,3-c]pyrrol-2-yl)-4-methyl-pentanoylamino]-nicotinic acid methyl ester]
8.123	COc1cccc2c1CC1=C(O2)C(=O)N([C@@H](CC(C)C)C(=O)Nc2nccs2)C1 [Example 11, (S)-2-(8-Methoxy-3-oxo-3,9-dihydro-1H-chromeno[2,3-c]pyrrol-2-yl)-4-methyl-pentanoic acid thiazol-2-ylamide]
0.304	COc1ccc(OC)c2c1CC1=C(O2)C(=O)N([C@@H](CC2CCCCC2)C(=O)Nc2ccccn2)C1 [Example 13, (S)-3-Cyclohexyl-2-(5,8-dimethoxy-3-oxo-3,9-dihydro-1H-chromeno[2,3-c]pyrrol-2-yl)-N-pyridin-2-yl-propionamide]
0.911	COc1ccc(OC)c2c1CC1=C(O2)C(=O)N([C@@H](CC(C)C)C(=O)Nc2ccc(Cl)cn2)C1 [Example 14, (S)-2-(5,8-Dimethoxy-3-oxo-3,9-dihydro-1H-chromeno[2,3-c]pyrrol-2-yl)-4-methyl-pentanoic acid (5-chloro-pyridin-2-yl)-amide]
0.428	COc1ccc(OC)c2c1CC1=C(O2)C(=O)N([C@@H](CC2CCCCC2)C(=O)Nc2ccc(Cl)cn2)C1 [Example 15, (S)—N-(5-Chloro-pyridin-2-yl)-3-cyclohexyl-2-(5,8-dimethoxy-3-oxo-3,9-dihydro-1H-chromeno[2,3-c]pyrrol-2-yl)-propionamide]
2.423	O=C(Nc1ccccn1)[C@H](CC1CCCCC1)N1CC2=C(Oc3c(Cl)cccc3C2)C1=O [Example 20, (S)-2-(5-Chloro-3-oxo-3,9-dihydro-1H-chromeno[2,3-c]pyrrol-2-yl)-3-cyclohexyl-N-pyridin-2-yl-propionamide]
4.181	O=C(Nc1nccs1)[C@H](CC1CCCCC1)N1CC2=C(Oc3c(Cl)cccc3C2)C1=O [Example 21, (S)-2-(5-Chloro-3-oxo-3,9-dihydro-1H-chromeno[2,3-c]pyrrol-2-yl)-3-cyclohexyl-N-thiazol-2-yl-propionamide]
9.858	COC(=O)c1ccc(NC(=O)[C@H](CC(C)C)N2CC3=C(Oc4c(Cl)cccc4C3)C2=O)nc1 [Example 22, 6-[(S)-2-(5-Chloro-3-oxo-3,9-dihydro-1H-chromeno[2,3-c]pyrrol-2-yl)-4-methyl-pentanoylamino]-nicotinic acid methyl ester]
11.865	CC(C)C[C@@H](C(=O)Nc1ccccn1)N1CC2=C(Oc3c(Cl)cccc3C2)C1=O [Example 23, (S)-2-(5-Chloro-3-oxo-3,9-dihydro-1H-chromeno[2,3-c]pyrrol-2-yl)-4-methyl-pentanoic acid pyridin-2-ylamide]
0.507	COc1cccc2c1CC1=C(O2)C(=O)N([C@@H](CC2CCCCC2)C(=O)Nc2ccn(C[C@@H](O)CO)n2)C1 [Example 25, (S)-3-Cyclohexyl-N-[1-((R)-2,3-dihydroxy-propyl)-1H-pyrazol-3-yl]-2-(8-methoxy-3-oxo-3,9-dihydro-1H-chromeno[2,3-c]pyrrol-2-yl)-propionamide]
